Source: US7056947B2, “Aza-peptide epoxides” (Georgia Tech Research Corp., priority 2002, dated 2006)

Experiments:
[1] = molecular target: T1, caspase-3 (Homo sapiens, UniProt P42574); experiment: Caspase-3 progress curve assay; type: biochemical; conditions: substrate Z-DEVD-AFC; NI = no inhibition
T1 construct: made in house; host or cells: E. coli
T1 sequence (P42574 29-175 limits assumed): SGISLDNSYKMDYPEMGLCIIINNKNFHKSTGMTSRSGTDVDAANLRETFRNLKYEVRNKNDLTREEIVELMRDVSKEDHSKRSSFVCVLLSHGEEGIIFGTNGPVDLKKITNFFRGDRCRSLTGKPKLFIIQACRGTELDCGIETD
T1 sequence (P42574 176-277 limits assumed): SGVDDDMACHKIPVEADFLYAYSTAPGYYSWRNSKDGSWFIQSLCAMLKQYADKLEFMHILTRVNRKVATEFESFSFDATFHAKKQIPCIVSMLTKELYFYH
Experimental: Caspase-3, -6, and -8. Caspase-3, -6 and -8 were expressed in E. coli and purified according to methods previously described by Stennicke and Salvesen. Assays using the fluorogenic substrate Z-DEVD-AFC (λex=400 nm, λem=505 nm) were carried out on a Molecular Devices fMax fluorescence microplate reader. Inhibition rates and equilibria were determined by the progress curve method. The standard 100 μL reaction was started by adding enzyme to a mixture of substrate (final concentration of Z-DEVD-AFC 100 μM) and various amounts of inhibitor in buffer (50 mM Hepes, 100 mM NaCl, 0.1% (w/v) CHAPS, sucrose 10% (w/v), and 10 mM DTT, at pH 7.4). The caspases were pre-activated for 10 min at 37° C. in the presence of 10 mM DTT.

[2] = molecular target: T2, caspase-1 (Homo sapiens, UniProt P29466, D381E); experiment: Caspase-1 progress curve assay; type: biochemical; conditions: D381E variant, substrate Ac-YVAD-AMC, 30° C.
T2 construct: His tag (N); made in house; host or cells: E. coli
T2 sequence (P29466 120-297 limits assumed): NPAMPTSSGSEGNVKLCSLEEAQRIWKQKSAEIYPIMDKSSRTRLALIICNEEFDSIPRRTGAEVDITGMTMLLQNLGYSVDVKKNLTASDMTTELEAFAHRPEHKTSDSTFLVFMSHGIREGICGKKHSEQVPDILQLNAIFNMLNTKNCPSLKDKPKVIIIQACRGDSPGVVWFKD
T2 sequence (P29466 317-404 D381E limits assumed): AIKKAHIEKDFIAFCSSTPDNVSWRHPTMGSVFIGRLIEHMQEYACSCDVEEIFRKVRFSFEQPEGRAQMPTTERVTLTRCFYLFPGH
Text: Caspase-1. The preparation of the autolytically stable caspase-1 variant used in these studies has been described previously. Briefly, the variant contains a mutation (D381E) which renders it resistant to autolytic inactivation, but has no detectable affect on enzyme activity as compared to the naturally occurring enzyme. The enzyme variant was expressed in E. coli, purified first by immobilized metal chromatography via the N-terminal N-His tag, treated with excess oxidized glutathione to stabilize the reactive thiolate, and then re-purified by size-exclusion chromatography.
Inhibition data was measured using the progress curve assay method. Serial dilutions of each compound were prepared using an initial 8-fold dilution of a DMSO stock into HGE (100 mM HEPES,20% glycerol v/v, 0.5 mM EDTA), followed by seven serial two-fold dilutions into HGE and 12.5% DMSO, thus maintaining constant DMSO through the dilution series. Ten μL of diluted stocks or of vehicle (HGE and 12.5% DMSO) were placed in triplicate onto a 96-well microtiter plate, allowing several compounds to be tested on each plate. The plate was covered to minimize evaporation, and the plate was pre-warmed to 30° C. for 20 minutes. Enzyme was diluted into 10.0 mL of assay buffer (HGE, 5 mM DTT, plus 15 μM Ac-YVAD-AMC, 2 nM approximate final enzyme concentration), and this activated reaction mixture was added to the plate at 90 μL/well. Progress of substrate hydrolysis was monitored for 900 s in a LabSystems (Needham, Mass.) Fluoroskan Ascent fluorescent plate-reader using 385 and 460 nm excitation and emission filters, respectively, and a photomultiplier gain setting of 10. Triplicate curves were averaged and fit by nonlinear regression to the equation for irreversible inactivation shown below.
[formula] where F0 was routinely fixed to zero, since fluorescence values were always adjusted to an origin of 0. The second order rate constant kon (M^−1s^−1) was obtained from the slopes by linear regression, and errors represent the standard deviation of the regression slope.

Row | k2 caspase-3 [1] | k2 caspase-1 [2] | SMILES
1 | 2110 ± 50 M⁻¹ s⁻¹ | 56640 ± 9322 M⁻¹ s⁻¹ | CC(C)[C@H](NC(=O)CCc1ccccc1)C(=O)N[C@@H](C)C(=O)NN(CC(=O)O)C(=O)[C@H]1O[C@@H]1C(=O)OCCc1ccccc1 [23e, (2S,3S)-3-(N^2-(3-Phenylpropanoylvalylalanyl)-N^1-carboxymethylhydrazinocarbonyl)oxirane-2-carboxylic Acid Phenethyl Ester]
2 | 3115 ± 125 M⁻¹ s⁻¹ | 13000 ± 980 M⁻¹ s⁻¹ | CC[C@H](C)[C@H](NC(=O)OCc1ccccc1)C(=O)N[C@@H](CCC(=O)O)C(=O)N[C@H](C(=O)NN(CC(=O)O)C(=O)[C@@H]1O[C@H]1C(=O)OCc1ccccc1)[C@@H](C)O [27d (R,R), (2R,3R)-3-(N^2-(N-Benzyloxycarbonylisoleucylglutamylthreonyl)-N^1-carboxymethylhydrazinocarbonyl)oxirane-2-carboxylic Acid Benzyl Ester]
3 | 2630 ± 365 M⁻¹ s⁻¹ | 13260 ± 3684 M⁻¹ s⁻¹ | CCOC(=O)[C@@H]1O[C@H]1C(=O)N(CC(=O)O)NC(=O)[C@@H](NC(=O)[C@H](CCC(=O)O)NC(=O)[C@@H](NC(=O)OCc1ccccc1)[C@@H](C)CC)[C@@H](C)O [27c (R,R), (2R,3R)-3-(N^2-(N-Benzyloxycarbonylisoleucylglutamylthreonyl)-N^1-carboxymethylhydrazinocarbonyl)oxirane-2-carboxylic Acid Ethyl Ester]
4 | 3520 ± 600 M⁻¹ s⁻¹ | 43500 ± 2150 M⁻¹ s⁻¹ | CC(C)C[C@H](NC(=O)OCc1ccccc1)C(=O)N[C@@H](CCC(=O)O)C(=O)N[C@H](C(=O)NN(CC(=O)O)C(=O)[C@H]1O[C@@H]1C(=O)OCc1ccccc1)[C@@H](C)O [26d, (2S,3S)-3-(N^2-(N-Benzyloxycarbonylleucylglutamylthreonyl)-N^1-carboxymethylhydrazinocarbonyl)oxirane-2-carboxylic Acid Benzyl Ester]
5 | 6475 ± 240 M⁻¹ s⁻¹ | 18140 ± 4085 M⁻¹ s⁻¹ | CC[C@H](C)[C@H](NC(=O)OCc1ccccc1)C(=O)N[C@@H](CCC(=O)O)C(=O)N[C@H](C(=O)NN(CC(=O)O)C(=O)[C@@H]1O[C@H]1C(=O)NCc1ccccc1)[C@@H](C)O [27g, (2R,3R)-2-(2-Benzylcarbamoyl)-3-(N^2-(N-benzyloxycarbonylisoleucylglutamylthreonyl)-N^1-carboxymethylhydrazinocarbonyl)oxirane]
6 | 722180 ± 340860 M⁻¹ s⁻¹ | 9250 ± 2835 M⁻¹ s⁻¹ | CC(C)[C@H](NC(=O)[C@H](CCC(=O)O)NC(=O)[C@H](CC(=O)O)NC(=O)OCc1ccccc1)C(=O)NN(CC(=O)O)C(=O)[C@H]1O[C@@H]1C(=O)N[C@@H](Cc1ccccc1)C(N)=O [25l, Cbz-Asp-Glu-Val-AAsp-(S,S)-EP-CO-Phe-NH2]
7 | 420 ± 6 M⁻¹ s⁻¹ | 26090 ± 2562 M⁻¹ s⁻¹ | CC(C)CC(NC(=O)[C@H]1O[C@@H]1C(=O)N(CC(=O)O)NC(=O)[C@H](C)NC(=O)[C@@H](NC(=O)CCc1ccccc1)C(C)C)C(N)=O (stereo partly drawn) [23k, (2S,3S)-2-(3-Methyl-1-amido-butylcarbamoyl)-3-(N^2-(3-phenylpropanoylvalylalanyl)-N^1-carboxymethylhydrazinocarbonyl)oxirane]
8 | 9545 ± 960 M⁻¹ s⁻¹ | 45788 M⁻¹ s⁻¹ | CC[C@H](C)[C@H](NC(=O)OCc1ccccc1)C(=O)N[C@@H](CCC(=O)O)C(=O)N[C@H](C(=O)NN(CC(=O)O)C(=O)[C@H]1O[C@@H]1C(=O)OCc1ccccc1)[C@@H](C)O [27d (S,S), (2S,3S)-3-(N^1-(N-Benzyloxycarbonylisoleucylglutamylthreonyl)-N^1-carboxymethylhydrazinocarbonyl)oxirane-2-carboxylic Acid Benzyl Ester]
9 | 1110 ± 100 M⁻¹ s⁻¹ | 17150 ± 2254 M⁻¹ s⁻¹ | CC(C)[C@H](NC(=O)CCc1ccccc1)C(=O)N[C@@H](C)C(=O)NN(CC(=O)O)C(=O)[C@H]1O[C@@H]1C(=O)NCCc1ccccc1 [23h (S,S), (2S,3S)-2-(2-Phenethylcarbamoyl)-3-(N^2-(3-phenylpropanoylvalylalanyl)-N^1-carboxymethylhydrazinocarbonyl)oxirane]
10 | 1040 ± 80 M⁻¹ s⁻¹ | 32200 ± 14560 M⁻¹ s⁻¹ | CCOC(=O)[C@H]1O[C@@H]1C(=O)N(CC(=O)O)NC(=O)[C@H](C)NC(=O)[C@@H](NC(=O)CCc1ccccc1)C(C)C [23c (S,S), (2S,3S)-3-(N^2-(3-Phenylpropanoylvalylalanyl)-N^1-carboxymethylhydrazinocarbonyl)oxirane-2-carboxylic Acid Ethyl Ester]
11 | 1915200 ± 209200 M⁻¹ s⁻¹ | 54690 ± 15913 M⁻¹ s⁻¹ | CC(C)[C@H](NC(=O)[C@H](CCC(=O)O)NC(=O)[C@H](CC(=O)O)NC(=O)OCc1ccccc1)C(=O)NN(CC(=O)O)C(=O)[C@H]1O[C@@H]1C(=O)OCc1ccccc1 [25d, (2S,3S)-3-(N^2-(N-Benzyloxycarbonylaspartylglutamylvalyl)-N^1-carboxymethylhydrazinocarbonyl)oxirane-2-carboxylic Acid Benzyl Ester]
12 | 1610 ± 5 M⁻¹ s⁻¹ | 65900 ± 9153 M⁻¹ s⁻¹ | CC(C)[C@H](NC(=O)CCc1ccccc1)C(=O)N[C@@H](C)C(=O)NN(CC(=O)O)C(=O)[C@H]1O[C@@H]1C(=O)NCc1ccccc1 [23g (S,S), (2S,3S)-2-(2-Benzylcarbamoyl)-3-(N^2-(3-phenylpropanoylvalylalanyl)-N^1-carboxymethylhydrazinocarbonyl)oxirane]
13 | 625 ± 160 M⁻¹ s⁻¹ | 32740 ± 9937 M⁻¹ s⁻¹ | CC(C)[C@H](NC(=O)CCc1ccccc1)C(=O)N[C@@H](C)C(=O)NN(CC(=O)O)C(=O)[C@H]1O[C@@H]1C(=O)NC(Cc1ccccc1)C(N)=O (stereo partly drawn) [23l (S,S), (2S,3S)-2-(1-Amido-phenethylcarbamoyl)-3-(N^2-(3-phenylpropanoylvalylalanyl)-N^1-carboxymethylhydrazinocarbonyl)oxirane]
14 | 260 ± 25 M⁻¹ s⁻¹ | 13400 M⁻¹ s⁻¹ | CC(NC(=O)[C@H]1O[C@@H]1C(=O)N(CC(=O)O)NC(=O)[C@H](C)NC(=O)[C@@H](NC(=O)CCc1ccccc1)C(C)C)C(=O)NCc1ccccc1 (stereo partly drawn) [23j (S,S), (2S,3S)-2-(1-Benzylcarbamoylethylcarbamoyl)-3-(N^2-(3-phenylpropanoylvalylalanyl)-N^1-carboxymethylhydrazinocarbonyl)oxirane]
15 | 1074440 ± 154710 M⁻¹ s⁻¹ | 11840 ± 1214 M⁻¹ s⁻¹ | CCOC(=O)[C@H]1O[C@@H]1C(=O)N(CC(=O)O)NC(=O)[C@@H](NC(=O)[C@H](CCC(=O)O)NC(=O)[C@H](CC(=O)O)NC(=O)OCc1ccccc1)C(C)C [25c (S,S), (2S,3S)-3-(N^2-(N-Benzyloxycarbonylaspartylglutamylvalyl)-N^1-carboxymethylhydrazinocarbonyl)oxirane-2-carboxylic Acid Ethyl Ester]
16 | 27330 ± 5430 M⁻¹ s⁻¹ | 41070 ± 440 M⁻¹ s⁻¹ | CC(C)[C@H](NC(=O)[C@H](CCC(=O)O)NC(=O)OCc1ccccc1)C(=O)NN(CC(=O)O)C(=O)[C@H]1O[C@@H]1C(=O)NCCc1ccccc1 [24h, (2S,3S)-2-(2-Phenethylcarbamoyl)-3-(N^2-(N-benzyloxycarbonylglutamylvalyl)-N^1-carboxymethylhydrazinocarbonyl)oxirane]
